The source of these data is PMC6802730, “In Vitro Performance of Published Glypican 3-Targeting Peptides TJ12P1 and L5 Indicates Lack of Specificity and Potency” (Cancer Biotherapy & Radiopharmaceuticals, 2019).

The nature of one data set: Solubility assays. It counts as physicochemical. As for the experimental part:
Solubility assays were performed to determine the most compatible solvent for both peptides before in vitro evaluation of GPC3 binding, favoring aqueous solvents over cytotoxic organic solvents such as dimethylformamide (DMF) and dimethyl sulfoxide (DMSO).
FIG. 1. Cy5.5-conjugated TJ12P1 is peptide insoluble in aqueous buffer. Bright field images of Cy5.5-TJ12P1 peptides in solution. In (A, B), peptide Cy5.5-TJ12P1 is undissolved in 20% DMSO/80% ddH2O and 100% ddH2O at 0.3 mg/mL, respectively. DMSO, dimethyl sulfoxide.

In the next data set the target is T1, human GPC3 (Homo sapiens, UniProt P51654).
T1 construct: biotin (biotinylated); purchased Acro Biosystems
Nature of the data set: Biolayer interferometry to immobilized recombinant biotinylated GPC3. In kind it is binding. The settings on record: unlabeled peptide, 1 × PBS with 0.02% Tween-20. Here is the method:
(§1) Biotinylated human GPC3 protein (Acro Biosystems, Newark, DE) was diluted to 5 μg/mL in assay buffer (1 × PBS with 0.02% Tween-20) in a 96-well plate and loaded onto streptavidin biosensors (FortéBio, Menlo Park, CA). Each unconjugated peptide was diluted in assay buffer at four concentrations (1000, 500, 250, and 125 nM for TJ12P1; and 500, 250, 125, and 62.5 nM for KKK-L5) and loaded into the 96-well plate in a final volume of 200 μL. Specific and nonspecific binding wells were made for each concentration. The plate was run on an Octet Red96 system (FortéBio) and analyzed with FortéBio Octet Data Analysis software (v.11).
For orientation: BLI is a label-free optical method that tracks binding on a fibre tip over time.

In data set [1] the test system is GPC3. Nature of the data set: Cell-based and cell-free GPC3 binding assays, overall result. Details: species or system human. As to conditions: for specific binding (overall): concentrations in the range of their reported KD; for selectivity for GPC3 (overall): concentrations near the reported KD; for binding to GPC3 (overall): fluorescently labeled and unlabeled versions, concentrations in the range of their published KD (0.3–1 μM). Here is the method: (§2) Approximately 1 × 10^6 cells per sample tube were harvested, washed once with ice-cold staining buffer (1% bovine serum albumin in 1 × phosphate buffered saline [PBS]), and resuspended in 60 μL staining buffer. Cells were then distributed into control and experimental vials. Unstained and single-color control samples were made. Experimental samples were stained with PE-conjugated anti-GPC3 antibody (R&D Systems, Minneapolis, MN), PE-conjugated IgG2 isotype control (Biolegend, San Diego, CA), conjugated specific or nonspecific peptide and incubated for 1–2 h on ice in the dark. Data were collected using a BD FACSCalibur cytometer running BD CellQuest Pro software (v6.0), and results were analyzed with FlowJo (v10.4.2). All experiments represent biological replicates (n = 3).
as §1

Data set [2] addresses GPC3. As to conditions: cited from earlier work. From the text: Table 1. […] Several full-length antibodies, antibody fragments, and peptides for imaging and/or therapeutic use have been developed for GPC3 with varying degrees of success (Table 1).[8–17] […] To rule out the possibility that fluorophore modification of TJ12P1 interfered with its abil ... || (+ 2 further places)

For data set [3] the following is noted: cited from earlier work. Here is the method: Solubility assays were performed to determine the most compatible solvent for both peptides before in vitro evaluation of GPC3 binding, favoring aqueous solvents over cytotoxic organic solvents such as dimethylformamide (DMF) and dimethyl sulfoxide (DMSO). […] Sonication and vortexin ... || This study has a few limitations.

The target in data set [4] is Glypican 3 (Homo sapiens) (UniProt P51654). The experiment in a line: surface plasmon resonance. The settings on record: cited from earlier work. (In SPR one partner is held on a chip, and binding of the other changes the refractive index at the surface.)
Data set [5] can be described thus: Hydrophobic residue content.
Data set [6] concerns G1, HepG2, and A431 cells. The experiment in a line: Flow cytometry, binding compared across A431, G1 and HepG2 cells. It counts as cell-based, human. As to conditions: 1 h, n = 3. Here is the method: (§3) A431, a human epidermoid carcinoma GPC3^− cell line, and A431-GPC3^+ (G1), a transfected A431 cell line engineered to stably express human GPC3, were both obtained from Dr. M.H. (National Cancer Institute, Bethesda, MD).[12] HepG2 (GPC3^+ liver cancer cell line) was obtained from ATCC (Manassas, VA). All cell lines were cultured in DMEM (Life Technologies, Carlsbad, CA) supplemented with 10% FetaPlex (Gemini Bio-Products, West Sacramento, CA) according to supplier's protocols. All cell lines tested negative for mycoplasma in monthly tests and were used for experiments within 10 passages (HepG2) or 15 passages (A431 and G1).
as §2
In general terms: Flow cytometry measures light scatter and fluorescence of single cells or particles in a stream.

A further data set relates to HepG2 cells. The experiment in a line: Flow cytometry, HepG2 (GPC3-positive) cells. As to conditions: 300 nM, 1 h, n = 3. It counts as cell-based. Here is the method:
as §3
as §2, with “All experiments represent biological replicates (n = 3).” left out

The target in data set [7] is Glypican 3 (Homo sapiens) (UniProt P51654). As to conditions: cited from earlier work.

Entries after “also recorded” stand apart in the source; their conditions may differ. Read-outs that look alike come from different tables or passages of the source.

T1 sequence (P51654 25-580): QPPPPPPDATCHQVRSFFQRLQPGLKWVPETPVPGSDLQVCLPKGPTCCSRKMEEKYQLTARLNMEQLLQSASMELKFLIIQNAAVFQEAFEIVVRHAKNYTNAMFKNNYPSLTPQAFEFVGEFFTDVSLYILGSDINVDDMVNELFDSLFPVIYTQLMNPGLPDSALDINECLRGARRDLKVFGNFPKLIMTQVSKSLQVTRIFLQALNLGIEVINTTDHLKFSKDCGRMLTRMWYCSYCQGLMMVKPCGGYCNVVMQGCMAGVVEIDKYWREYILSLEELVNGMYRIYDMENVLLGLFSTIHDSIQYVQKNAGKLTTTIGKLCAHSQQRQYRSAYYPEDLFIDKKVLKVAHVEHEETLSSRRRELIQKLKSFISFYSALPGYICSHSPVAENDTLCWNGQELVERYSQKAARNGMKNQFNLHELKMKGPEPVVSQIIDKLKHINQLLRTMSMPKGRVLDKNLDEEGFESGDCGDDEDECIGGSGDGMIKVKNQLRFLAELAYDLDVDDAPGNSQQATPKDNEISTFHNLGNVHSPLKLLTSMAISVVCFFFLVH
Glypican 3 (Homo sapiens), sequence (P51654 359-554): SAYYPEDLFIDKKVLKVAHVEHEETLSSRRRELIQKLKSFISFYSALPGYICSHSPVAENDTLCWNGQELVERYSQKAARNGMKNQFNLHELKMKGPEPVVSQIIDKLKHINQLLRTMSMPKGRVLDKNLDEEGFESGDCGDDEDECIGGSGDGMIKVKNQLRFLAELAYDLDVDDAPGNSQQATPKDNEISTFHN

As usually defined, the Kd is the free concentration of one partner at which half of the binding sites on the other are occupied at equilibrium, for simple one-to-one binding. Regarding DHLASLWWGTEL [TJ12P1], the solubility entry in “Solubility assays” (aqueous solution) was “poor solubility in aqueous solution”. In addition, the solubility result in the data set “Solubility assays” (aqueous solution, record 2) is “poor solubility in aqueous solutions”. For the same substance, the “KD by BLI” value on human GPC3 (125–1000 nM) is listed as “no KD could be calculated”. In addition, the “BLI concentration-dependent binding to GPC3” value on human GPC3 (125–1000 nM, recombinant biotinylated human GPC3 on streptavidin biosensors) is listed as “failed to demonstrate concentration-dependent binding behavior”. In the data set on GPC3 [1], the “specific binding (overall)” value is “do not bind specifically”, the “selectivity for GPC3 (overall)” value was “neither TJ12P1 nor L5 variant demonstrates selectivity for GPC3” and the “binding to GPC3 (overall)” value is recorded as “neither fluorescently labeled nor unlabeled versions tested can bind to GPC3”. In addition, the Kd on GPC3 [2] (with Cy5.5, ref [9] (Zhu et al.)) is 0.39 µM.

For “KKK-RLNVGGTYFLTTRQ [KKK-L5, variant of the L5 peptide with three lysine residues]”, the solubility result in “Solubility assays” (ddH2O, 0.5 mg/mL) was “soluble in ddH2O”. Besides, the “KD by BLI” value at human GPC3 (62.5–500 nM) is listed as “no KD could be calculated”. On human GPC3 (62.5–500 nM, recombinant biotinylated human GPC3 on streptavidin biosensors), the “BLI binding to GPC3” value was “absence of specific binding to GPC3; also recorded: failed to demonstrate concentration-dependent binding behavior”. Besides, in the data set with GPC3 [1], the “specific binding (overall)” value was “do not bind specifically” and the “selectivity for GPC3 (overall)” value is “neither TJ12P1 nor L5 variant demonstrates selectivity for GPC3”. In data set [3] (aqueous solution, compared to the original L5 peptide, ref [23] (Han et al.)), the solubility result is given as “higher solubility in aqueous solution”.

For the substance L5, the Kd in [4] was 0.0447 µM.

For “RLNVGGTYFLTTRQ [L5, previously published GPC3-targeting peptide; original L5 not evaluated in this study, reference compound]”, the solubility entry is recorded as “poor solubility in aqueous solutions” in the data set “Solubility assays” (aqueous solution) and “poor solubility” in data set [3] (original L5 peptide, as reported in literature). Further, the “binding to GPC3 (overall)” value with GPC3 [1] is recorded as “neither fluorescently labeled nor unlabeled versions tested can bind to GPC3”. Also, the “hydrophobic residues, share of sequence” value in [5] (four out of the 14 residues) is 28.5%. Moreover, the “hydrophobic residues, number” value in [5] (out of the 14 residues) is recorded as “Four”.

Consider “Sulfo-Cy5-DHLASLWWGTEL [sulfo-Cy5-TJ12P1, sulfo-Cy5-labeled variant of TJ12P1]”, for which, in “Solubility assays” (0.15 M NH4OAc), the solubility entry is reported as “appeared to be soluble”. Further, the “binding, G1 vs HepG2 vs A431” value in [6] (325 nM, flow cytometry) is “no significant difference in binding between G1, HepG2, and A431 cells; also recorded: nonspecific association of TJ12P1 to all cell lines”.

With “Sulfo-Cy5-KKKRLNVGGTYFLTTRQ [sulfo-Cy5-KKK-L5, sulfo-Cy5-conjugated KKK-L5]”, the solubility result in “Solubility assays” (ddH2O, 0.5 mg/mL) is “soluble in ddH2O”. Also, the “binding, A431 vs HepG2 and G1 (histogram shift)” value in data set [6] (300 nM, flow cytometry) was “bound nonspecifically to GPC3, as the observed histogram shift is identical in the A431 (GPC3^−) and the HepG2 and G1 (GPC3^+) cells”.

For “Sulfo-Cy5-KKKYTRFLGTVGNRLTQ [sulfo-Cy5-KKK-L5 scramble, sulfo-Cy5-labeled scrambled variant of KKK-L5]”, in data set [6] (300 nM, all three cell lines, p < 0.05), the “binding (MFI) compared to specific peptide (sulfo-Cy5-KKK-L5)” value is given as “more binding; also recorded: binds better to all cell lines than the specific peptide”. The “difference in staining compared to sulfo-Cy5-KKK-L5” value is listed as “statistically significant” with HepG2 cells (high-staining HepG2 population (Hi), p < 0.001) and “statistically significant” in the data set on HepG2 cells (low-staining HepG2 population (Lo), p < 0.005).

“Sulfo-Cy5-WLSHLGDLTWEA [sulfo-Cy5-TJ12P1 scrambled peptide, sulfo-Cy5-labeled scrambled variant of TJ12P1]”: the “binding compared to sulfo-Cy5-TJ12P1” value in [6] (325 nM, all GPC3+ cell lines (G1, HepG2), flow cytometry, p = 0.02) was “significantly increased binding in all GPC3^+ cell lines”.

TJ12P1: the Kd in [7] was 0.39 µM.

In the case of “WLSHLGDLTWEA [TJ12P1 scramble, scrambled variant of TJ12P1, nonspecific control]”, in data set [6] (325 nM, all cell lines tested, p < 0.05), the “binding (MFI) compared to specific peptide (sulfo-Cy5-TJ12P1)” value is recorded as “more binding to all cell lines tested”.

“hGC33: published anti-GPC3 targeting moiety, humanized”: the Kd at GPC3 [2] (humanized: Yes, ref [16]) was 0.00067 µM.
